# From ChEMBL document CHEMBL6109041, “Docking and structure activity relationship studies of potent and selective thiazolidinethione GSK-3 inhibitors” (Bioorg Med Chem Lett, 2025)
# pIC50: −log10 of the molar value.
# Legend:
# [1] = target: T1, Glycogen synthase kinase-3 beta (Homo sapiens, UniProt P49841); assay: Inhibition of GSK3beta (unknown origin) at 2 uM relative to control
# Target sequence in this assay (P49841 whole entry, looked up): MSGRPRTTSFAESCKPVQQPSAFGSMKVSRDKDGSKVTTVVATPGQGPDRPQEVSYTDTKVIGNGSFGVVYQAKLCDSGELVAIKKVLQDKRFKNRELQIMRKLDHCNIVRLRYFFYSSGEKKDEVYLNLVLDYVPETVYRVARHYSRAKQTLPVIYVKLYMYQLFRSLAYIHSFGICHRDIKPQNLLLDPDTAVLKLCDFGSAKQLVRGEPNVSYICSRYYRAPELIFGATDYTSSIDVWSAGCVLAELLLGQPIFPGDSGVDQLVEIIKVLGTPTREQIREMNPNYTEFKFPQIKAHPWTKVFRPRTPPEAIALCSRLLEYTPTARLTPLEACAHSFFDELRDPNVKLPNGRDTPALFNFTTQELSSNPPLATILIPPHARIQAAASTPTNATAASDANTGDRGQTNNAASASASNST
# [2] = target: T1, Glycogen synthase kinase-3 beta; assay: Inhibition of GSK3beta (unknown origin)
# Target sequence in this assay (P49841 whole entry): as the sequence (P49841 whole entry, looked up) above
# [3] = target: T2, Glycogen synthase kinase-3 alpha (Homo sapiens, UniProt P49840); assay: Inhibition of GSK3alpha (unknown origin) at 2 uM relative to control
# Target sequence in this assay (P49840 2-483 limits assumed): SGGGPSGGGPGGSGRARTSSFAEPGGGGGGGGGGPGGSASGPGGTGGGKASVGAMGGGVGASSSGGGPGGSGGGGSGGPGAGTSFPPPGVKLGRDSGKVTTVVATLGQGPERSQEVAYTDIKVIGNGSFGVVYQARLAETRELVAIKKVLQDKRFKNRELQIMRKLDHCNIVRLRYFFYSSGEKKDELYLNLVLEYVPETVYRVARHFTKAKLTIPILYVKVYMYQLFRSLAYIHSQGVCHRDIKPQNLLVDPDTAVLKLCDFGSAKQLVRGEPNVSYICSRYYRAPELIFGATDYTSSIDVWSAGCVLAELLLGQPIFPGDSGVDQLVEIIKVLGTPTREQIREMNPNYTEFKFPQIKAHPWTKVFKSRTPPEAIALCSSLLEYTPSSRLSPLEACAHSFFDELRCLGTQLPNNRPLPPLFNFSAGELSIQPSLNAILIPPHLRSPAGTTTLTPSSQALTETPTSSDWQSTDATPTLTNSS
# [4] = target: T2, Glycogen synthase kinase-3 alpha; assay: Inhibition of GSK3alpha (unknown origin)
# Target sequence in this assay (P49840 whole entry): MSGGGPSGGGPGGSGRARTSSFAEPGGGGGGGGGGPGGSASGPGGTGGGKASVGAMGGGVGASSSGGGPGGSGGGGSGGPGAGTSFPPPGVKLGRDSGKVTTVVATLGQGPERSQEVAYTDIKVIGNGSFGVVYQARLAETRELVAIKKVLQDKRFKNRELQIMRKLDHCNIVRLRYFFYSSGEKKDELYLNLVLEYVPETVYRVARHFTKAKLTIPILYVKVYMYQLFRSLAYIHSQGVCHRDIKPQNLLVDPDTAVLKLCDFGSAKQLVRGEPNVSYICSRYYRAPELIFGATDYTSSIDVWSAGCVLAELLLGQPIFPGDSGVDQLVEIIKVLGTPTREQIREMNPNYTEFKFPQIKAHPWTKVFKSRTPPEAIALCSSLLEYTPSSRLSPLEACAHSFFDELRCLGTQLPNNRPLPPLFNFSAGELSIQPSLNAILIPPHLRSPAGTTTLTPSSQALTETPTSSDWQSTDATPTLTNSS
inhibition [1],pIC50 [2],inhibition [3],pIC50 [4],SMILES
> 90%,7.91,> 90%,7.74,OC1(c2ccccc2)CSC(=S)N1Cc1ccncc1 (stereo not drawn)
,< 5.00,,< 5.00,OC1(c2ccccc2)CSC(=S)N1Cc1ccccn1 (stereo not drawn)
,< 5.00,,< 5.00,OC1(c2ccccc2)CSC(=S)N1Cc1ccccc1 (stereo not drawn)
